Source: ChEMBL document CHEMBL5034010, “Novel Cephalosporin Conjugates Display Potent and Selective Inhibition of Imipenemase-Type Metallo-β-Lactamases” (J Med Chem, 2021)
pIC50: −log10 of the molar value. In brackets after ≈: the same amount, converted by molar mass. Blank lines part the entries; values can stand above or below the molecule they belong to. Activity calls are given as the source filed them. No cut-off for these calls is given here.

How the values were obtained:
[1] = Stability of the compound assessed as Klebsiella pneumoniae beta-lactamase IMP-28-mediated degradation by measuring appearance of vinyl protons release measured after 120 mins by NMR spectra; format: ADME; conditions: 2 h
[2] = test system: Escherichia coli; experiment: Inhibition of Metallo-beta-lactamase VIM-2 in Escherichia coli clinical isolate assessed as MIC for meropenem antibacterial activity at 128 ug/ml (reference value: 8 ug/ml); conditions: dose 128.0 µg/ml
[3] = test system: Klebsiella pneumoniae; experiment: Inhibition of Metallo-beta-lactamase IMP-28 in Klebsiella pneumoniae clinical isolate assessed as MIC for meropenem antibacterial activity at 32 ug/ml (reference value: 4 ug/ml); conditions: dose 32.0 µg/ml
[4] = test system: Escherichia coli; experiment: Inhibition of Metallo-beta-lactamase VIM-2 in Escherichia coli clinical isolate assessed as fold reduction in meropenem MIC at 128 ug/ml; conditions: dose 128.0 µg/ml
[5] = test system: Escherichia coli; experiment: Antibacterial activity against beta-lactamase VIM2 producing Escherichia coli clinical isolate measured upto 128 ug/ml; format: functional, organism-based
[6] = test system: Escherichia coli; experiment: Inhibition of Metallo-beta-lactamase VIM-2 in Escherichia coli clinical isolate assessed as fold reduction in meropenem MIC at 64 ug/ml; conditions: dose 64.0 µg/ml
[7] = Stability of the compound in Muller hinton broth assessed compound remaining measured after 15 hrs by HPLC analysis; format: physicochemical; conditions: Mueller Hinton broth, read-out: Stability
[8] = test system: Klebsiella pneumoniae; experiment: Inhibition of Metallo-beta-lactamase IMP-28 in Klebsiella pneumoniae clinical isolate assessed as fold reduction in meropenem MIC at 32 ug/ml; conditions: dose 32.0 µg/ml
[9] = test system: Enterobacter cloacae; experiment: Inhibition of Metallo-beta-lactamase IMP-1 in Enterobacter cloacae clinical isolate assessed as MIC for meropenem antibacterial activity at 32 ug/ml (Rvb =16 ug/ml); conditions: dose 32.0 µg/ml
[10] = test system: Klebsiella pneumoniae; experiment: Inhibition of Metallo-beta-lactamase IMP-28 in Klebsiella pneumoniae clinical isolate assessed as fold reduction in meropenem MIC at 64 ug/ml; conditions: dose 64.0 µg/ml
[11] = test system: Enterobacter cloacae; experiment: Inhibition of Metallo-beta-lactamase IMP-1 in Enterobacter cloacae clinical isolate assessed as fold reduction in meropenem MIC at 128 ug/ml; conditions: dose 128.0 µg/ml
[12] = test system: Escherichia coli; experiment: Antibacterial activity against beta-lactamase NDM1 producing Escherichia coli clinical isolate measured upto 128 ug/ml; format: functional, organism-based
[13] = test system: Escherichia coli; experiment: Inhibition of Metallo-beta-lactamase NDM-1 in Escherichia coli clinical isolate assessed as MIC for meropenem antibacterial activity at 32 ug/ml (reference value: 32 ug/ml); conditions: dose 32.0 µg/ml
[14] = test system: Escherichia coli; experiment: Inhibition of Metallo-beta-lactamase NDM-1 in Escherichia coli clinical isolate assessed as fold reduction in meropenem MIC at 64 ug/ml; conditions: dose 64.0 µg/ml
[15] = test system: Escherichia coli; experiment: Inhibition of Metallo-beta-lactamase VIM-2 in Escherichia coli clinical isolate assessed as MIC for meropenem antibacterial activity at 32 ug/ml (reference value: 8 ug/ml); conditions: dose 32.0 µg/ml
[16] = Inhibition of Escherichia coli beta-lactamase NDM-1 using nitrocefin chromogenic substrate measured after 15 to 60 min at 25 degC by microplate reader
[17] = test system: Klebsiella pneumoniae; experiment: Inhibition of Metallo-beta-lactamase IMP-28 in Klebsiella pneumoniae clinical isolate assessed as MIC for meropenem antibacterial activity at 64 ug/ml (reference value: 4 ug/ml); conditions: dose 64.0 µg/ml
[18] = Inhibition of Enterobacter cloacae IMP-1 using nitrocefin chromogenic substrate measured after 15 to 60 min at 25 degC by microplate reader
[19] = Inhibition of Klebsiella pneumoniae beta-lactamase IMP-28 using nitrocefin chromogenic substrate measured after 15 to 60 min at 25 degC by microplate reader
[20] = Inhibition of Escherichia coli beta-lactamase VIM-2 using nitrocefin chromogenic substrate measured after 15 to 60 min at 25 degC by microplate reader
[21] = test system: Escherichia coli; experiment: Inhibition of Metallo-beta-lactamase VIM-2 in Escherichia coli clinical isolate assessed as MIC for meropenem antibacterial activity at 64 ug/ml (reference value: 8 ug/ml); conditions: dose 64.0 µg/ml
[22] = test system: Escherichia coli; experiment: Inhibition of Metallo-beta-lactamase NDM-1 in Escherichia coli clinical isolate assessed as fold reduction in meropenem MIC at 128 ug/ml; conditions: dose 128.0 µg/ml
[23] = test system: Enterobacter cloacae; experiment: Inhibition of Metallo-beta-lactamase IMP-1 in Enterobacter cloacae clinical isolate assessed as fold reduction in meropenem MIC at 64 ug/ml; conditions: dose 64.0 µg/ml
[24] = test system: Enterobacter cloacae; experiment: Inhibition of Metallo-beta-lactamase IMP-1 in Enterobacter cloacae clinical isolate assessed as MIC for meropenem antibacterial activity at 64 ug/ml (Rvb =16 ug/ml); conditions: dose 64.0 µg/ml
[25] = test system: Enterobacter cloacae; experiment: Inhibition of Metallo-beta-lactamase IMP-1 in Enterobacter cloacae clinical isolate assessed as MIC for meropenem antibacterial activity at 128 ug/ml (Rvb =16 ug/ml); conditions: dose 128.0 µg/ml
[26] = test system: Klebsiella pneumoniae; experiment: Antibacterial activity against beta-lactamase IMP-28 producing Klebsiella pneumoniae clinical isolate measured upto 128 ug/ml; format: functional, organism-based
[27] = test system: Escherichia coli; experiment: Inhibition of Metallo-beta-lactamase NDM-1 in Escherichia coli clinical isolate assessed as fold reduction in meropenem MIC at 32 ug/ml; conditions: dose 32.0 µg/ml
[28] = test system: Escherichia coli; experiment: Inhibition of Metallo-beta-lactamase NDM-1 in Escherichia coli clinical isolate assessed as MIC for meropenem antibacterial activity at 128 ug/ml (reference value: 32 ug/ml); conditions: dose 128.0 µg/ml
[29] = test system: Escherichia coli; experiment: Inhibition of Metallo-beta-lactamase VIM-2 in Escherichia coli clinical isolate assessed as fold reduction in meropenem MIC at 32 ug/ml; conditions: dose 32.0 µg/ml
[30] = test system: Escherichia coli; experiment: Inhibition of Metallo-beta-lactamase NDM-1 in Escherichia coli clinical isolate assessed as MIC for meropenem antibacterial activity at 64 ug/ml (reference value: 32 ug/ml); conditions: dose 64.0 µg/ml
[31] = test system: Enterobacter cloacae; experiment: Inhibition of Metallo-beta-lactamase IMP-1 in Enterobacter cloacae clinical isolate assessed as fold reduction in meropenem MIC at 32 ug/ml; conditions: dose 32.0 µg/ml
[32] = test system: Klebsiella pneumoniae; experiment: Inhibition of Metallo-beta-lactamase IMP-28 in Klebsiella pneumoniae clinical isolate assessed as fold reduction in meropenem MIC at 128 ug/ml; conditions: dose 128.0 µg/ml
[33] = test system: Enterobacter cloacae; experiment: Antibacterial activity against beta-lactamase IMP1 producing Enterobacter cloacae clinical isolate measured upto 128 ug/ml; format: functional, organism-based
[34] = test system: Klebsiella pneumoniae; experiment: Inhibition of Metallo-beta-lactamase IMP-28 in Klebsiella pneumoniae clinical isolate assessed as MIC for meropenem antibacterial activity at 128 ug/ml (reference value: 4 ug/ml); conditions: dose 128.0 µg/ml
[35] = test system: Klebsiella pneumoniae; experiment: Inhibition of Metallo-beta-lactamase IMP-28 in Klebsiella pneumoniae clinical isolate assessed as MIC for meropenem antibacterial activity at 128 ug/ml (reference value: 2 ug/ml); conditions: dose 128.0 µg/ml
[36] = test system: Escherichia coli; experiment: Inhibition of Metallo-beta-lactamase VIM-2 in Escherichia coli clinical isolate assessed as MIC for meropenem antibacterial activity at 128 ug/ml (reference value: 4 ug/ml); conditions: dose 128.0 µg/ml
[37] = test system: Klebsiella pneumoniae; experiment: Substrate activity at Klebsiella pneumoniae beta-lactamase IMP-28 assessed as compound hydrolysis by measuring Kcat by Michaelis-Menten analysis
[38] = test system: Klebsiella pneumoniae; experiment: Inhibition of Metallo-beta-lactamase IMP-28 in Klebsiella pneumoniae clinical isolate assessed as MIC for meropenem antibacterial activity at 64 ug/ml (reference value: 2 ug/ml); conditions: dose 64.0 µg/ml
[39] = test system: Escherichia coli; experiment: Inhibition of Metallo-beta-lactamase VIM-2 in Escherichia coli clinical isolate assessed as MIC for meropenem antibacterial activity at 64 ug/ml (reference value: 4 ug/ml); conditions: dose 64.0 µg/ml
[40] = test system: Klebsiella pneumoniae; experiment: Inhibition of Metallo-beta-lactamase IMP-28 in Klebsiella pneumoniae clinical isolate assessed as MIC for meropenem antibacterial activity at 32 ug/ml (reference value: 2 ug/ml); conditions: dose 32.0 µg/ml
[41] = test system: Klebsiella pneumoniae; experiment: Substrate activity at Klebsiella pneumoniae beta-lactamase IMP-28 assessed as compound hydrolysis by measuring Kcat/Km by Michaelis-Menten analysis
[42] = test system: Escherichia coli; experiment: Inhibition of Metallo-beta-lactamase VIM-2 in Escherichia coli clinical isolate assessed as MIC for meropenem antibacterial activity at 32 ug/ml (reference value: 4 ug/ml); conditions: dose 32.0 µg/ml
[43] = test system: Klebsiella pneumoniae; experiment: Substrate activity at Klebsiella pneumoniae beta-lactamase IMP-28 assessed as compound hydrolysis by measuring Km by Michaelis-Menten analysis

Stability [1]: Unstable
Compound: CC(=O)OCC1=C(C(=O)O)N2C(=O)[C@@H](NC(=O)Cc3ccccc3)[C@H]2SC1 [CEFALORAM]

Compound: O=C(Cc1ccccc1)N[C@@H]1C(=O)N2C(C(=O)O)=C(CSCC(=O)c3ccccc3)CS[C@H]12
MIC [2]: 4 µg/mL (≈ 8.29 µM)
MIC [3]: 1 µg/mL (≈ 2.07 µM)
fold change (FC) [4]: 2
Activity [5]: inactive
fold change (FC) [6]: 2
remaining at 15 h [7]: > 95%
fold change (FC) [8]: 4
MIC [9]: 8 µg/mL (≈ 16.6 µM)
fold change (FC) [10]: 8
fold change (FC) [11]: 4
Activity [12]: inactive
MIC [13]: 16 µg/mL (≈ 33.2 µM)
fold change (FC) [14]: 4
MIC [15]: 8 µg/mL (≈ 16.6 µM)
pIC50 [16]: 4.11
MIC [17]: 0.5 µg/mL (≈ 1.04 µM)
pIC50 [18]: 5.48
pIC50 [19]: 4.85
pIC50 [20]: 4.12
MIC [21]: 4 µg/mL (≈ 8.29 µM)
fold change (FC) [22]: 4
fold change (FC) [23]: 2
MIC [24]: 8 µg/mL (≈ 16.6 µM)
MIC [25]: 4 µg/mL (≈ 8.29 µM)
Activity [26]: inactive
fold change (FC) [27]: 2
MIC [28]: 8 µg/mL (≈ 16.6 µM)
fold change (FC) [29]: 1
MIC [30]: 8 µg/mL (≈ 16.6 µM)
fold change (FC) [31]: 2
fold change (FC) [32]: 16
Activity [33]: inactive
MIC [34]: 0.25 µg/mL (≈ 0.518 µM)

Compound: O=C(O)CSCC1=C(C(=O)O)N2C(=O)[C@@H](NC(=O)Cc3ccccc3)[C@H]2SC1
MIC [35]: 0.125 µg/mL (≈ 0.296 µM)
MIC [36]: 1 µg/mL (≈ 2.37 µM)
fold change (FC) [4]: 4
Activity [5]: inactive
fold change (FC) [6]: 2
fold change (FC) [8]: 8
MIC [9]: 8 µg/mL (≈ 18.9 µM)
fold change (FC) [10]: 8
fold change (FC) [11]: 4
Activity [12]: inactive
MIC [13]: 16 µg/mL (≈ 37.9 µM)
fold change (FC) [14]: 2
pIC50 [16]: 4.14
kcat [37]: 37 s⁻¹
MIC [38]: 0.25 µg/mL (≈ 0.592 µM)
MIC [39]: 2 µg/mL (≈ 4.73 µM)
MIC [40]: 0.25 µg/mL (≈ 0.592 µM)
pIC50 [18]: < 4.00
kcat/Km [41]: 169000 M⁻¹ s⁻¹
pIC50 [19]: < 4.00
pIC50 [20]: 4.28
fold change (FC) [22]: 4
fold change (FC) [23]: 2
MIC [24]: 8 µg/mL (≈ 18.9 µM)
MIC [25]: 4 µg/mL (≈ 9.47 µM)
Activity [26]: inactive
fold change (FC) [27]: 2
MIC [28]: 8 µg/mL (≈ 18.9 µM)
MIC [42]: 2 µg/mL (≈ 4.73 µM)
fold change (FC) [29]: 2
Km [43]: 219 µM
MIC [30]: 16 µg/mL (≈ 37.9 µM)
fold change (FC) [31]: 2
fold change (FC) [32]: 16
Activity [33]: inactive
